Among the data in PMC9026428, “New Peptide Based Fluconazole Conjugates with Expanded Molecular Targets” (Pharmaceutics, 2022) are MIC50 and MIC90 values, retold here.

SMILES strings stand for the structures. ≈ marks a conversion by molar mass, not a printed value. Non-standard residues stand in square brackets, D forms with d. Residues, ends and D or L forms follow the SMILES beside them. *: point of attachment. X1 = O=C(CCCC(=O)*)OC(Cn1cncn1)(Cn1cncn1)c1ccc(F)cc1F; Nle = CCCC[C@H](N)C(=O)O

Experiment in all cases: microbe, parasite or virus in culture
In experiment [1] the test system is Candida albicans 190. Particulars: C. albicans 190 (fluconazole-resistant clinical isolate), RPMI 1640/MOPS pH 7.0, 24 h, 37 °C, triplicate; for MIC50: at least 50% growth inhibition vs growth control; for MIC90: lowest concentration with no visible growth. The method, boiled down:
(§1)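 Yeasts were exposed to compounds in MOPS-buffered RPMI 1640 (pH 7.0) following a modified CLSI M27-A3 protocol and incubated 24 h at 37 °C. Wells were then subcultured onto drug-free YPD agar for a further 24 h to obtain minimum fungicidal concentrations.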

Experiment [2] relates to Candida albicans 48. Particulars: C. albicans 48 (fluconazole-resistant clinical isolate), RPMI 1640/MOPS pH 7.0, 24 h, 37 °C, triplicate; for MIC50: at least 50% growth inhibition vs growth control; for MIC90: lowest concentration with no visible growth. The essentials:
as §1

Experiment [3] has as its system Candida albicans B4. Particulars: C. albicans B4 (fluconazole-resistant, MDR1 overexpression), RPMI 1640/MOPS pH 7.0, 24 h, 37 °C, triplicate; for MIC50: at least 50% growth inhibition vs growth control; for MIC90: lowest concentration with no visible growth. The essentials: (§2)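 CLSI M27-A3-based microdilution, RPMI/MOPS pH 7.0, 24 h at 37 °C, ~1% DMSO.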
Experiment [4] relates to Candida albicans 574. Particulars: C. albicans 574 (fluconazole-resistant clinical isolate), RPMI 1640/MOPS pH 7.0, 24 h, 37 °C, triplicate; for MIC50: at least 50% growth inhibition vs growth control; for MIC90: lowest concentration with no visible growth. The essentials:
as §1

Experiment [5] deals with Candida albicans 247. Conditions: C. albicans 247 (fluconazole-resistant clinical isolate), RPMI 1640/MOPS pH 7.0, 24 h, 37 °C, triplicate; for MIC50: at least 50% growth inhibition vs growth control; for MIC90: lowest concentration with no visible growth. The essentials: as §1
Experiment [6] deals with Candida krusei DSM 11226. Particulars: C. krusei DSM 11226, RPMI 1640/MOPS pH 7.0, 24 h, 37 °C, triplicate; for MIC50: at least 50% growth inhibition vs growth control; for MIC90: lowest concentration with no visible growth. The method, boiled down: as §1
Experiment [7] has as its system Candida albicans 604. Particulars: C. albicans 604 (fluconazole-resistant clinical isolate), RPMI 1640/MOPS pH 7.0, 24 h, 37 °C, triplicate; for MIC50: at least 50% growth inhibition vs growth control; for MIC90: lowest concentration with no visible growth. The method, boiled down:
as §1

The test system of experiment [8] is Candida albicans Gu5. Conditions: C. albicans Gu5 (fluconazole-resistant, CDR1/2 overexpression), RPMI 1640/MOPS pH 7.0, 24 h, 37 °C, triplicate; for MIC50: at least 50% growth inhibition vs growth control; for MIC90: lowest concentration with no visible growth. The method, boiled down: as §2
Experiment [9] concerns Candida glabrata DSM 6128. Conditions: C. glabrata DSM 6128, RPMI 1640/MOPS pH 7.0, 24 h, 37 °C, triplicate; for MIC50: at least 50% growth inhibition vs growth control; for MIC90: lowest concentration with no visible growth. The essentials:
as §1

Experiment [10] deals with Candida albicans ATCC 10231. Conditions: C. albicans ATCC 10231, RPMI 1640/MOPS pH 7.0, 24 h, 37 °C, triplicate; for MIC50: at least 50% growth inhibition vs growth control; for MIC90: lowest concentration with no visible growth. The method, boiled down: as §2
Experiment [11] relates to Candida albicans Gu4. Conditions: C. albicans Gu4 (fluconazole-sensitive isolate), RPMI 1640/MOPS pH 7.0, 24 h, 37 °C, triplicate; for MIC50: at least 50% growth inhibition vs growth control; for MIC90: lowest concentration with no visible growth. The method, boiled down: as §2
The subject of experiment [12] is Candida albicans B3. Particulars: C. albicans B3 (fluconazole-sensitive isolate), RPMI 1640/MOPS pH 7.0, 24 h, 37 °C, triplicate; for MIC50: at least 50% growth inhibition vs growth control; for MIC90: lowest concentration with no visible growth. The method, boiled down:
as §1

In the case of `CSCC[C@H](NC(=O)[C@H](C)NC(=O)[C@H](CCCNC(=N)N)NC(=O)[C@H](CCCCN)NC(=O)[C@H](Cc1c[nH]c2ccccc12)NC(=O)[C@H](CCC(N)=O)NC(=O)[C@H](Cc1ccccc1)NC(=O)[C@H](CS)NC(=O)CCCC(=O)OC(Cn1cncn1)(Cn1cncn1)c1ccc(F)cc1F)C(=O)N[C@@H](CCCNC(=N)N)C(=O)N[C@@H](CCCCN)C(=O)N[C@H](C(=O)N[C@@H](CCCNC(=N)N)C(N)=O)C(C)C` [FLCpOH-HLopt2-NH2] (X1-CFQWKRAMRKVR-NH2), the MIC50 in experiment [1] is reported as 250 µM (≈ 503 µg/mL); in experiment [2], 250 µM (≈ 503 µg/mL); in experiment [3] it was >250 µM; in experiment [4] it was 250 µM (≈ 503 µg/mL); in experiment [5], >250 µM; in [6] it was >250 µM. The MIC50 is given as >250 µM in experiment [7]; >250 µM in experiment [8]; >250 µM in experiment [9]; 125 µM (≈ 251 µg/mL) in experiment [10]; >250 µM in experiment [11]; >250 µM in experiment [12]. Also, the MIC90 in experiment [1], in experiment [2], in experiment [3], in [4], in experiment [5] and in [6] was >250 µM each time. Besides, the MIC90 in experiment [7] was >250 µM; in experiment [8], >250 µM; in experiment [9], >250 µM; in experiment [10], 250 µM (≈ 503 µg/mL); in experiment [11], >250 µM; in [12] it was >250 µM.
Consider `CCCC[C@H](NC(=O)CCCC(=O)OC(Cn1cncn1)(Cn1cncn1)c1ccc(F)cc1F)C(=O)N[C@@H](Cc1ccccc1)C(=O)N[C@@H](CCCCN)C(=O)N[C@@H](CS)C(=O)N[C@@H](CCCNC(=N)N)C(=O)N[C@@H](CCCNC(=N)N)C(=O)N[C@@H](Cc1c[nH]c2ccccc12)C(=O)N[C@@H](CCC(N)=O)C(=O)N[C@@H](Cc1c[nH]c2ccccc12)C(=O)N[C@@H](CCCNC(=N)N)C(=O)N[C@@H](CCCC)C(=O)N[C@@H](CCCCN)C(=O)N[C@@H](CCCCN)C(=O)N[C@@H](CC(C)C)C(=O)NCC(N)=O` [FLCpOH-LFacinB[Nle^1,11]-NH2] (X1-[Nle]FKCRRWQWR[Nle]KKLG-NH2), for which the MIC50 in experiment [1] is recorded as 90 µM (≈ 218 µg/mL); in [2], 250 µM (≈ 605 µg/mL); in experiment [3], 250 µM (≈ 605 µg/mL); in experiment [4] it was 45 µM (≈ 109 µg/mL); in [5], 45 µM (≈ 109 µg/mL); in experiment [6], 31 µM (≈ 75 µg/mL). Further, the MIC50 in experiment [7] is on record as 45 µM (≈ 109 µg/mL); in [8] it was >250 µM; in experiment [9], 250 µM (≈ 605 µg/mL); in [10] it was 45 µM (≈ 109 µg/mL); in experiment [11] it was 125 µM (≈ 302 µg/mL); in experiment [12] it was 45 µM (≈ 109 µg/mL). For the same compound, the MIC90 is 125 µM (≈ 302 µg/mL) in experiment [1]; >250 µM in experiment [2]; >250 µM in experiment [3]; 62 µM (≈ 150 µg/mL) in experiment [4]; 62 µM (≈ 150 µg/mL) in [5]; 62 µM (≈ 150 µg/mL) in [6]. Also, the MIC90 in experiment [7] is given as 90 µM (≈ 218 µg/mL); in experiment [8], >250 µM; in experiment [9] it was >250 µM; in experiment [10], 62 µM (≈ 150 µg/mL); in experiment [11] it was 250 µM (≈ 605 µg/mL); in experiment [12], 62 µM (≈ 150 µg/mL).
Consider `O=C(O)CCCC(=O)OC(Cn1cncn1)(Cn1cncn1)c1ccc(F)cc1F` [FLCpOH], for which the MIC50 in experiment [1], in experiment [2], in [3], in experiment [4], in experiment [5] and in experiment [6] was >250 µM in each case. The MIC50 in experiment [7], in [8], in experiment [9], in experiment [10], in [11] and in experiment [12] was >250 µM in each case. Besides, the MIC90 in [1], in experiment [2], in experiment [3], in experiment [4], in experiment [5] and in [6] was >250 µM throughout. For the same compound, the MIC90 in [7], in experiment [8], in experiment [9], in [10], in experiment [11] and in [12] was >250 µM in each case.
